Test results taken from patent publication US20120295838A1, “Selective poly-substituted glycine antibiotics and related compositions” (priority 2008, published 2012).
Where two headings read alike, the source gives them in different places. Numbered stars: 1 amine (or outer) side, 2 acyl side, 3 side chain; on linkers, the order of the positions; unused ones are H or OH. Square brackets hold non-standard residues; d marks the D form. Peptide text beside a SMILES is read from it. N(1S-Me-propyl)Gly = CC[C@H](C)NCC(=O)O; X1 = CC(C)[C@H](C)N(CC(=O)[*:2])[*:1]; Nrpe = C[C@@H](NCC(=O)O)c1ccccc1; Nspe = C[C@H](NCC(=O)O)c1ccccc1; Nlys = NCCCCNCC(=O)O

Legend:
human erythrocytes = assay: Hemolysis assay; assay type: cell-based
Method: (§1) Hemolysis assays. Erythrocytes were isolated from freshly drawn, heparanized human blood and resuspended to 20 vol % in PBS (pH 7.4). In a 96-well microtiter plate, 100 μL erythrocyte suspension was added to 100 uL peptoid solution in PBS (prepared by 1:2 serial dilutions), or 100 μL PBS in the case of negative controls. 100% hemolysis wells contained 100 μL, blood cell suspension with 100 μL 0.2 vol % Triton X-100. The plate was incubated for 1 h at 37° C., then each well was diluted with 1504 PBS. The plate was then centrifuged at 1200 g for 15 min, 100 μL of the supernatant from each well transferred to a fresh microtiter plate, and A350 measured.
Hemolysis assays. Erythrocytes were isolated from freshly drawn, heparanized human blood and resuspended in PBS (pH 7.4) to make a 20% volume suspension. Peptoid solutions were prepared by serial dilution (2:1) in a 96-well microtiter plate. For test wells, 100 μLL of erythrocyte suspension was added to 100 μL of peptoid solution in PBS; PBS without peptoid was used as the negative control and 0.2 vol % Triton X-100 as the positive control that indicates 100% hemolysis. After 1 hour incubation at 37° C., each well was diluted with 150 μL PBS. Plates were then centrifuged at 1,200×g for 15 minutes to pellet the cells. 30 μL of the supernatant from each well were transferred to the corresponding well of a second 96-well plate that contains 70 μL PBS.
as §1, with “assays for Compositions.” for “assays.”, “100” for “100 uL”, “μL” for “μL,”, “150 μL” for “1504”, “1200g” for “1200 g”

MTS assay, NIH 3T3 cells = assay type: cell-based, mouse; conditions: NIH 3T3 fibroblast cells
Method: The potencies of all compounds were determined against representative Gram-negative (E. coli ATCC 35218) and Gram-positive (B. subtilis ATCC 6633) biosafety level 1 (BSL1) organisms. In addition to hemolytic activity, the conventional measure of toxicity to mammalian cells, the effect of each ampetoid on NIH 3T3 mouse fibroblast cells was determined using the MTS tetrazolium salt-based colorimetric assay. While hemolysis measures the degree to which erythrocytes are lysed, the MTS assay indirectly quantifies the extent to which cellular metabolic activity is inhibited.
MTS assays. NIH/3T3 cells (ATCC Corporation) cultured at 37° C. and 5% CO2 in complete Dulbecco's modified eagle's media (CDMEM) supplemented with 1% sodium pyruvate, 1% penicillin-streptomycin, 1.5 g/L NaHCO3, and 10% fetal bovine serum. Cells were seeded at a density of 5,000 cells per well for NIH/3T3 cells in 96-well plates (100 μl total volume). A peptoid solution plate (100 μL total volume per well) was prepared by serial dilution of aqueous peptoid stock solution in Hank's balanced salt solution (HBSS) media. The day-old cell monolayers were washed with HBSS and media was replaced with 100 μL HBSS. The contents of the peptoid solution plate were transferred onto corresponding wells of the cell monolayer plate, and 40 μL MTS reagent (Promega, Inc.) was added to each well. After incubating for 3 hours at 37° C., absorbance at 490 nm was determined. […] The average of six replicates is reported.

E. coli ATCC 35218 = assay type: cell-based; conditions: ATCC 35218
Method: Whereas the preceding generation of molecules was designed to elucidate structure function relationships of specific molecular parameters (chirality, length, hydrophobicity, etc.), another generation compounds were designed explicitly to explore effects on selectivity. Antimicrobial activity of these compounds was tested against bacterial strains E. coli (ATTC 35218) and B. subtilis (ATTC 6633) in cation-adjusted MHB using the microdilution protocols previously described. The sequences, antimicrobial activities, hemolytic activities, and metabolic inhibitory concentrations against NIH 3T3 mouse fibroblast cells are summarized in Table 3 and the rationale of their design is described below.
Screening antibacterial assays. MICs were determined in 96-well microtiter plates in accordance with CLSI M7-A6 protocols. Peptoid solutions with 50 μL total volume were prepared using 2:1 serial dilutions. 50 i—tL of bacteria inoculum (1×10^6 CFU/mL) prepared in cation-adjusted Mueller-Hinton broth (CAMHB) was added to test wells. Control wells contained 100 μL MHB (no growth) or 50 μL inoculums with 50 μL MHB with no peptoid. […] Reported values were reproducible over three experiments, each containing two parallel trials.
Antibacterial Assays for Compositions. MICs were determined according to CLSI M7-A6 protocols in a 96-well microtiter plate. In test wells, 50 μL bacterial inoculum (1×10^6 CFU/ml) in cation-adjusted Mueller-Hinton broth (CAMHB) was added to 50 μL peptoid solution in CAMHB (prepared by 1:2 serial dilutions). Positive controls contained 50 μL inoculum and 50 μL CAMHB without peptoid. […] MIC values reported were reproducible between three independent experimental replicates, each consisting of two parallel trials.

[1] = Table 6, 50% inhibitory dose against NIH 3T3 mouse fibroblast cells, read-out: ID50

E. coli MIC (E. coli ATCC 35218) [µM]	Structure (SMILES)	CC50 at 3 h (MTS assay, NIH 3T3 cells; [1]) [µM]	CC50 at 3 h (MTS assay, NIH 3T3 cells; mouse) [µM]	further results
	C[C@@H](c1ccccc1)N(CC(N)=O)C(=O)CN(C(=O)CN(CCC(=O)O)C(=O)CN(C(=O)CN(C(=O)CN(CCC(=O)O)C(=O)CN(C(=O)CN(C(=O)CN(CCC(=O)O)C(=O)CN(C(=O)CN(C(=O)CNCCC(=O)O)[C@@H](C)c1ccccc1)[C@@H](C)c1ccccc1)[C@@H](C)c1ccccc1)[C@@H](C)c1ccccc1)[C@@H](C)c1ccccc1)[C@@H](C)c1ccccc1)[C@@H](C)c1ccccc1 [1-Nglu1.4.7.10, H-(Nglu-Nspe-Nspe)4-NH2]			HD10 (10% hemolytic dose) (human erythrocytes; red cells of human, 1 h): >110/>110 μM
	C[C@H](c1ccccc1)N(CC(=O)N(CCCCN)CC(=O)N(CC(=O)N(CC(=O)N(CCCCN)CC(=O)N(CC(=O)N(CC(=O)N(CCCCN)CC(=O)N(CC(=O)N(CC(N)=O)[C@@H](C)c1ccccc1)[C@@H](C)c1ccccc1)[C@@H](C)c1ccccc1)[C@@H](C)c1ccccc1)[C@H](C)c1ccccc1)[C@H](C)c1ccccc1)C(=O)CN(C(=O)CNCCCCN)[C@H](C)c1ccccc1 [1-Nrpe2,3,5,6, H-(Nlys-Nrpe-Nrpe)2-(Nlys-Nspe-Nspe)2-NH2] (H-[Nlys][Nrpe][Nrpe][Nlys][Nrpe][Nrpe][Nlys][Nspe][Nspe][Nlys][Nspe][Nspe]-NH2)	4.8		
	C[C@H](c1ccccc1)N(CC(=O)N(CC(N)=O)[C@@H](C)c1ccccc1)C(=O)CN(CCCCN)C(=O)CN(C(=O)CN(C(=O)CN(CCCCN)C(=O)CN(C(=O)CN(C(=O)CN(CCCCN)C(=O)CN(C(=O)CN(C(=O)CNCCCCN)[C@H](C)c1ccccc1)[C@@H](C)c1ccccc1)[C@H](C)c1ccccc1)[C@@H](C)c1ccccc1)[C@H](C)c1ccccc1)[C@@H](C)c1ccccc1 [1-Nrpe2,5,8,11, H-(Nlys-Nrpe-Nspe)4-NH2] (H-[Nlys][Nrpe][Nspe][Nlys][Nrpe][Nspe][Nlys][Nrpe][Nspe][Nlys][Nrpe][Nspe]-NH2)	5.2		
	C[C@H](c1ccccc1)N(CC(N)=O)C(=O)CN(C(=O)CN(CCCCN)C(=O)CN(C(=O)CN(C(=O)CN(CCCCN)C(=O)CN(C(=O)CN(C(=O)CN(CCCCN)C(=O)CN(C(=O)CN(C(=O)CNCCCCN)[C@@H](C)c1ccccc1)[C@H](C)c1ccccc1)[C@@H](C)c1ccccc1)[C@H](C)c1ccccc1)[C@@H](C)c1ccccc1)[C@H](C)c1ccccc1)[C@@H](C)c1ccccc1 [1-Nrpe3,6,9,12, H-(Nlys-Nspe-Nrpe)4-NH2]	3.8		
12.5	CC(C)[C@H](C)N(CC(=O)N(CCCCN)CC(=O)N(CC(=O)N(CC(=O)N(CCCCN)CC(=O)N(CC(=O)N(CC(=O)N(CCCCN)CC(=O)N(CC(=O)N(CC(N)=O)[C@@H](C)c1ccccc1)[C@@H](C)c1ccccc1)[C@@H](C)C(C)C)[C@@H](C)C(C)C)[C@@H](C)c1ccccc1)[C@@H](C)c1ccccc1)C(=O)CN(C(=O)CNCCCCN)[C@@H](C)C(C)C [1-Nsdp2,3,8,9, H-(Nlys-Nsdp-Nsdp-Nlys-Nspe-Nspe)2-NH2] (H-[Nlys][X1][X1][Nlys][Nspe][Nspe][Nlys][X1][X1][Nlys][Nspe][Nspe]-NH2)		19	
50	C[C@@H](c1ccccc1)N(CC(N)=O)C(=O)CN(C(=O)CN(CCCCN)C(=O)[C@@H]1CCCN1C(=O)CN(C(=O)CN(CCCCN)C(=O)CN(C(=O)CN(C(=O)CN(CCCCN)C(=O)[C@@H]1CCCN1C(=O)CN(C(=O)CNCCCCN)[C@@H](C)c1ccccc1)[C@@H](C)c1ccccc1)[C@@H](C)c1ccccc1)[C@@H](C)c1ccccc1)[C@@H](C)c1ccccc1 [1-Pro3,9, H-(Nlys-Nspe-L-Pro-Nlys-Nspe-Nspe)2-NH2] (H-[Nlys][Nspe]P[Nlys][Nspe][Nspe][Nlys][Nspe]P[Nlys][Nspe][Nspe]-NH2)		71	
	C[C@H](NCC(=O)N(CCCCN)CC(=O)N(CC(=O)N(CCCCN)CC(=O)N(CCCCN)CC(=O)N(CCCCN)CC(=O)N(CC(=O)N(CCCCN)CC(=O)N(CC(=O)N(CCCCN)CC(=O)N(CCCCN)CC(=O)N(CC(N)=O)[C@@H](C)c1ccccc1)[C@@H](C)c1ccccc1)[C@@H](C)c1ccccc1)[C@@H](C)c1ccccc1)c1ccccc1 [1B12 mer-Nlys4,6,10, H-Nspe-Nlys-Nspe-Nlys-Nlys-Nlys-Nspe-Nlys-Nspe-Nlys-Nlys-Nspe-NH2] (H-[Nspe][Nlys][Nspe][Nlys][Nlys][Nlys][Nspe][Nlys][Nspe][Nlys][Nlys][Nspe]-NH2)		> 100	
50	C[C@H](NCC(=O)N(CCCCN)CC(=O)N(CC(=O)N(CCCCN)CC(=O)N(CCCCN)CC(=O)N(CC(=O)N(CC(=O)N(CCCCN)CC(=O)N(CC(=O)N(CCCCN)CC(=O)N(CCCCN)CC(=O)N(CC(N)=O)[C@@H](C)c1ccccc1)[C@@H](C)c1ccccc1)[C@@H](C)c1ccccc1)[C@@H](C)c1ccccc1)[C@@H](C)c1ccccc1)c1ccccc1 [1B12 mer-Nlys4,10, H-(Nspe-Nlys-Nspe-Nlys-Nlys-Nspe)2-NH2] (H-[Nspe][Nlys][Nspe][Nlys][Nlys][Nspe][Nspe][Nlys][Nspe][Nlys][Nlys][Nspe]-NH2)		83	
	CC[C@H](C)N(CC(=O)N(CC(=O)N(CC(=O)N(CCCCN)CC(N)=O)[C@@H](C)c1ccccc1)[C@@H](C)CC)C(=O)CN(CCCCN)C(=O)CN(C(=O)CN(CCCCN)C(=O)CN(C(=O)CN(C(=O)CN(C(=O)CN(C(=O)CNCCCCN)[C@@H](C)CC)[C@@H](C)c1ccccc1)[C@@H](C)CC)[C@@H](C)c1ccccc1)[C@@H](C)c1ccccc1 [2scrambled, H-Nlys-Nssb-Nspe-Nssb-Nspe-Nlys-Nspe-Nlys-Nssb-Nssb-Nspe-Nlys-NH2] (H-[Nlys][N(1S-Me-propyl)Gly][Nspe][N(1S-Me-propyl)Gly][Nspe][Nlys][Nspe][Nlys][N(1S-Me-propyl)Gly][N(1S-Me-propyl)Gly][Nspe][Nlys]-NH2)			HD10 (10% hemolytic dose) (human erythrocytes): > 120 µM
	C[C@@H](c1ccccc1)N(CC(N)=O)C(=O)CN(C(=O)CN(CCCCN)C(=O)CN(C(=O)CN(C(=O)CNCCCCN)[C@@H](C)c1ccccc1)[C@@H](C)c1ccccc1)[C@@H](C)c1ccccc1 [16 mer, H-(Nlys-Nspe-Nspe)2-NH2] (H-[Nlys][Nspe][Nspe][Nlys][Nspe][Nspe]-NH2)			HD10 (human erythrocytes): >200/>200 μM; HD50 (human erythrocytes): >200/>200 μM
